{"source": "paper PMC8241022", "about": "(Drug Delivery, 2017)", "key": {"[1]": {"details": "for dexamethasone concentration, Choroidal/retinal compound / dexamethasone concentration, Sclera / dexamethasone concentration, Vitreum: CCSDD: first dose 0.3 ml (5 mg/ml) DEXP, then 0.1 ml/h for 10 h, mean ± SD, n=6", "procedure": "(§1) Male and female New Zealand albino rabbits (about four months old and weighing 2.0–2.5 kg) were acquired from the Third Xiangya Hospital of Central South University (Changsha, China). All rabbits were examined thoroughly, and no ocular disease, then were randomly allocated to different groups for subsequent ocular PK studies. Animals were anesthetized by intramuscularly injecting Xylazine Hydrochloride Injection (2 ml:0.2 g, Huamu Animal Health Products Co., Jilin, 0.1–0.2 ml/kg) and dropped Oxybuprocaine Hydrochloride Eye Drops (20 ml:80 mg, Sa) three times, interval 2 min per time.\n(§2) Rabbits were randomly divided into three groups and six rabbits for each group per time point. […] After the last instillation in IV group (1 h, 3 h, 6 h, 12 h, 24 h) and SC injection group (1 h, 2 h, 3 h, 4 h, 6 h, 8 h, 12 h, 24 h), respectively, the ocular tissue were collected. […] Animals were euthanized by 3 ml lidocaine (3 ml/rabbit) and 3 ml air intravenously, immediately after death, ocular tissues were collected. Vitreous, choroid/retina and sclera were dissected and weighted as the solid tissues, the samples were stored at −20 °C and then processed for analysis.\n(§3) Frozen rabbit samples were thawed at ambient temperature, the solid samples were fixed with 400 ml 0.9% normal saline (NS) and homogenized. A 100 μl aliquot of Triamcinolone diacetate (I.S. 200 ng/ml) standard solution was added to 100 μl of each fluid sample and 400 μl 0.9% NS or homogenized samples. After a thorough vortex mixing for 30 s, the mixture was extracted with 1 ml n-hexane and acetate ester (1:1, v/v) for 60 min, the mixture was centrifuged at 14 000 rpm for 5 min. The organic layer was removed and evaporated under a gentle stream nitrogen gas at 45 °C until it was completely dry. The dried residue was dissolved with 50 μl mobile phase. After centrifugation, 5 μl of the clear supernatant was injected into the LC–MS system: LC-10AD VP low pressure gradient pump, CTO-10A VP column temperature oven, SCL-10AD VP system controller, and LC-MS chemstation. Separation was achieved on a Thermo Hypersil-Hypurity C18 column (150 mm × 2.1 mm, i.d., 5 μm, USA) at 40 °C. […] The operating parameters of ESI–MS (electrospray ionization–mass spectrometry) were as follows: capillary voltage was 4.5 kV; nebulizer nitrogen gas flow-rate was 1.5 l/min; drying N2 flow was 10 l/min; drying gas temperature was 250 °C, the gas used was of high purity, and system control and data evaluation were carried out using LC-MS chemstation (Japan). […] Quantitation was performed by a linear regression analysis of peak areas ratio from a standard curve containing seven standard points.\n(§4) The following pharmacokinetic parameters were obtained: peak concentration (Cmax), time to peak concentration (Tmax), elimination half-life (T1/2), area under the concentration–time curve between 0 and 24 h (AUC0–24).\n(§5) Tissue concentrations were analyzed using one-way analysis of variance (ANOVA). If there were differences in three groups, we used Dunnett T3 to analyze two groups. All other results were descriptive measures. Statistical significance was accepted at a level of p < 0.05."}, "in vivo [2]": {"assay": "in vivo", "details": "both, New Zealand albino, rabbit, iv, 1 mg/kg", "procedure": "as §1, §2, §3, §4, §5"}, "[3]": {"details": "for dexamethasone concentration, Choroidal/retinal compound / dexamethasone concentration, Sclera / dexamethasone concentration, Vitreum: IV: intravenous injection of 1 mg/kg DEXP, mean ± SD, n=6", "procedure": "as §1, §2, §3, §4, §5"}, "in vivo [4]": {"assay": "in vivo", "details": "both, New Zealand albino, rabbit; for Tmax: CCSDD group, 0.3 ml (5 mg/ml) DEXP then 0.1 ml/h for 10 h", "procedure": "as §1, §2, §3, §4, §5"}, "[5]": {"details": "SC: subconjunctival injection of 0.3 ml (5 mg/ml) DEXP, mean ± SD, n=6", "procedure": "as §1, §2, §3, §4, §5"}}, "note": "Like-named read-outs stand apart in the source and are kept apart here. Marks after values point to notes of the source that are not given here.", "data": [{"compound": "C[C@@H]1C[C@H]2[C@@H]3CCC4=CC(=O)C=C[C@]4(C)[C@@]3(F)[C@@H](O)C[C@]2(C)[C@@]1(O)C(=O)CO", "note": "[dexamethasone]", "values": [{"measurement": "AUC0–24, choroid/retinal compound", "setting": "[1]; CCSDD administration, rabbit", "result": 41400.70, "unit": "ng·h/g"}, {"measurement": "AUC0–24, sclera", "setting": "[1]; CCSDD administration, rabbit", "result": 93577.80, "unit": "ng·h/g"}, {"measurement": "dexamethasone concentration, Choroidal/retinal compound", "setting": "[1]; 1 h after first dose", "result": "2522.46 ± 425.94"}, {"measurement": "dexamethasone concentration, Sclera", "setting": "[1]; 1 h after first dose", "result": "11192.22 ± 5302.51"}, {"measurement": "dexamethasone concentration, Vitreum", "setting": "[1]; 1 h after first dose", "result": "71.05 ± 30.23"}, {"measurement": "dexamethasone concentration, Choroidal/retinal compound", "setting": "[1]; 3 h after first dose", "result": "3291.35 ± 438.11"}, {"measurement": "dexamethasone concentration, Sclera", "setting": "[1]; 3 h after first dose", "result": "9785.20 ± 1964.12"}, {"measurement": "dexamethasone concentration, Vitreum", "setting": "[1]; 3 h after first dose", "result": "57.23 ± 12.34"}, {"measurement": "dexamethasone concentration, Choroidal/retinal compound", "setting": "[1]; 6 h after first dose", "result": "2331.09 ± 454.41"}, {"measurement": "dexamethasone concentration, Sclera", "setting": "[1]; 6 h after first dose", "result": "6215.17 ± 1871.83"}, {"measurement": "dexamethasone concentration, Vitreum", "setting": "[1]; 6 h after first dose", "result": "50.23 ± 13.77"}, {"measurement": "dexamethasone concentration, Choroidal/retinal compound", "setting": "[1]; 10 h after first dose", "result": "1796.19 ± 380.36"}, {"measurement": "dexamethasone concentration, Sclera", "setting": "[1]; 10 h after first dose", "result": "4053.03 ± 1330.47"}, {"measurement": "dexamethasone concentration, Vitreum", "setting": "[1]; 10 h after first dose", "result": "50.51 ± 8.40"}, {"measurement": "dexamethasone concentration, Choroidal/retinal compound", "setting": "[1]; 11 h after first dose", "result": "1518.52 ± 332.81"}, {"measurement": "dexamethasone concentration, Sclera", "setting": "[1]; 11 h after first dose", "result": "3857.47 ± 1508.05"}, {"measurement": "dexamethasone concentration, Vitreum", "setting": "[1]; 11 h after first dose", "result": "42.84 ± 6.24"}, {"measurement": "dexamethasone concentration, Choroidal/retinal compound", "setting": "[1]; 12 h after first dose", "result": "1191.62 ± 303.29"}, {"measurement": "dexamethasone concentration, Sclera", "setting": "[1]; 12 h after first dose", "result": "1913.73 ± 389.28"}, {"measurement": "dexamethasone concentration, Vitreum", "setting": "[1]; 12 h after first dose", "result": "33.52 ± 5.31"}, {"measurement": "dexamethasone concentration, Choroidal/retinal compound", "setting": "[1]; 16 h after first dose", "result": "988.97 ± 336.43"}, {"measurement": "dexamethasone concentration, Sclera", "setting": "[1]; 16 h after first dose", "result": "1215.48 ± 449.07"}, {"measurement": "dexamethasone concentration, Choroidal/retinal compound", "setting": "[1]; 20 h after first dose", "result": "812.90 ± 188.26"}, {"measurement": "dexamethasone concentration, Sclera", "setting": "[1]; 20 h after first dose", "result": "906.40 ± 312.84"}, {"measurement": "dexamethasone concentration, Vitreum", "setting": "[1]; 20 h after first dose", "result": "27.78 ± 3.26"}, {"measurement": "dexamethasone concentration, Choroidal/retinal compound", "setting": "[1]; 24 h after first dose", "result": "418.20 ± 97.81"}, {"measurement": "dexamethasone concentration, Sclera", "setting": "[1]; 24 h after first dose", "result": "484.52 ± 155.25"}, {"measurement": "dexamethasone concentration, Vitreum", "setting": "[1]; 24 h after first dose", "result": "22.40 ± 4.38"}, {"measurement": "Cmax", "setting": "in vivo [2]; choroid/retina", "result": 285, "unit": "ng/g"}, {"measurement": "Tmax", "setting": "in vivo [2]; choroid/retina", "result": 3, "unit": "h"}, {"measurement": "Cmax", "setting": "in vivo [2]; sclera", "result": 403, "unit": "ng/g"}, {"measurement": "Tmax", "setting": "in vivo [2]; sclera", "result": 3, "unit": "h"}, {"measurement": "AUC(0-t)", "setting": "in vivo [2]; vitreous", "result": 285, "unit": "ng·h/mL"}, {"measurement": "Cmax", "setting": "in vivo [2]; vitreous", "result": 43.8, "unit": "ng/mL"}, {"measurement": "Tmax", "setting": "in vivo [2]; vitreous", "result": 1, "unit": "h"}, {"measurement": "AUC0–24, choroid/retinal compound", "setting": "[3]; IV route, rabbit", "result": 1571.71, "unit": "ng·h/g"}, {"measurement": "AUC0–24, sclera", "setting": "[3]; IV route, rabbit", "result": 2858.71, "unit": "ng·h/g"}, {"measurement": "dexamethasone concentration, Choroidal/retinal compound", "setting": "[3]; 1 h", "result": "140.57 ± 34.56^a"}, {"measurement": "dexamethasone concentration, Sclera", "setting": "[3]; 1 h", "result": "281.42 ± 60.13^a"}, {"measurement": "dexamethasone concentration, Vitreum", "setting": "[3]; 1 h", "result": "43.78 ± 2.62"}, {"measurement": "dexamethasone concentration, Sclera", "setting": "[3]; 3 h", "result": "402.99 ± 96.49^a"}, {"measurement": "dexamethasone concentration, Vitreum", "setting": "[3]; 3 h", "result": "30.08 ± 2.55^a"}, {"measurement": "dexamethasone concentration, Choroidal/retinal compound", "setting": "[3]; 6 h", "result": "90.75 ± 12.08^a"}, {"measurement": "dexamethasone concentration, Sclera", "setting": "[3]; 6 h", "result": "141.57 ± 31.46^a"}, {"measurement": "dexamethasone concentration, Vitreum", "setting": "[3]; 6 h", "result": "21.53 ± 2.66^a"}, {"measurement": "dexamethasone concentration, Choroidal/retinal compound", "setting": "[3]; 12 h", "result": "38.94 ± 13.00^a"}, {"measurement": "dexamethasone concentration, Sclera", "setting": "[3]; 12 h", "result": "64.38 ± 11.83^a"}, {"measurement": "dexamethasone concentration, Vitreum", "setting": "[3]; 12 h", "result": "5.34 ± 5.11^a"}, {"measurement": "dexamethasone concentration, Choroidal/retinal compound", "setting": "[3]; 24 h", "result": "3.71 ± 4.50^a"}, {"measurement": "dexamethasone concentration, Sclera", "setting": "[3]; 24 h", "result": "22.23 ± 7.44^a"}, {"measurement": "dexamethasone concentration, Vitreum", "setting": "[3]; 24 h", "result": "1.37 ± 2.14^a"}, {"measurement": "Cmax", "setting": "in vivo [4]; choroid/retina", "result": 3220, "unit": "ng/g"}, {"measurement": "Cmax", "setting": "in vivo [4]; in vivo, topical or ocular, 6.5 mg", "result": 71, "unit": "ng/mL"}, {"measurement": "Tmax", "setting": "in vivo [4]; in vivo, topical or ocular, 6.5 mg, Choroidal/retinal compound", "result": 3, "unit": "h"}, {"measurement": "Tmax", "setting": "in vivo [4]; in vivo, topical or ocular, 6.5 mg, Sclera", "result": 1, "unit": "h"}, {"measurement": "Tmax", "setting": "in vivo [4]; in vivo, topical or ocular, 6.5 mg, Vitreum", "result": 1, "unit": "h"}, {"measurement": "Cmax", "setting": "in vivo [4]; sclera", "result": 11200, "unit": "ng/g"}, {"measurement": "AUC(0-t)", "setting": "in vivo [4]; vitreous, topical or ocular, 6.5 mg", "result": 1410, "unit": "ng·h/mL"}, {"measurement": "dexamethasone concentration, Choroidal/retinal compound", "setting": "[5]; 1 h", "result": "1881.83 ± 336.98^a"}, {"measurement": "dexamethasone concentration, Sclera", "setting": "[5]; 1 h", "result": "8604.95 ± 1597.26"}, {"measurement": "dexamethasone concentration, Vitreum", "setting": "[5]; 1 h", "result": "63.19 ± 15.12"}, {"measurement": "dexamethasone concentration, Choroidal/retinal compound", "setting": "[5]; 2 h", "result": "3212.63 ± 796.76"}, {"measurement": "dexamethasone concentration, Sclera", "setting": "[5]; 2 h", "result": "6071.65 ± 737.76"}, {"measurement": "dexamethasone concentration, Vitreum", "setting": "[5]; 2 h", "result": "80.45 ± 11.10"}, {"measurement": "dexamethasone concentration, Choroidal/retinal compound", "setting": "[5]; 3 h", "result": "3638.80 ± 580.05"}, {"measurement": "dexamethasone concentration, Sclera", "setting": "[5]; 3 h", "result": "4419.68 ± 1006.87^a"}, {"measurement": "dexamethasone concentration, Vitreum", "setting": "[5]; 3 h", "result": "73.77 ± 14.74"}, {"measurement": "dexamethasone concentration, Choroidal/retinal compound", "setting": "[5]; 4 h", "result": "1701.27 ± 551.90"}, {"measurement": "dexamethasone concentration, Sclera", "setting": "[5]; 4 h", "result": "2287.56 ± 742.66"}, {"measurement": "dexamethasone concentration, Vitreum", "setting": "[5]; 4 h", "result": "39.65 ± 8.87"}, {"measurement": "dexamethasone concentration, Choroidal/retinal compound", "setting": "[5]; 6 h", "result": "1333.65 ± 469.43^a"}, {"measurement": "dexamethasone concentration, Sclera", "setting": "[5]; 6 h", "result": "1645.75 ± 631.69^a"}, {"measurement": "dexamethasone concentration, Vitreum", "setting": "[5]; 6 h", "result": "34.53 ± 6.89"}, {"measurement": "dexamethasone concentration, Choroidal/retinal compound", "setting": "[5]; 8 h", "result": "760.86 ± 177.74"}, {"measurement": "dexamethasone concentration, Sclera", "setting": "[5]; 8 h", "result": "1031.78 ± 443.14"}, {"measurement": "dexamethasone concentration, Vitreum", "setting": "[5]; 8 h", "result": "28.29 ± 4.56"}, {"measurement": "dexamethasone concentration, Sclera", "setting": "[5]; 12 h", "result": "463.21 ± 136.14^a"}, {"measurement": "dexamethasone concentration, Vitreum", "setting": "[5]; 12 h", "result": "22.68 ± 5.40^a"}, {"measurement": "dexamethasone concentration, Choroidal/retinal compound", "setting": "[5]; 24 h", "result": "184.59 ± 94.86^a"}, {"measurement": "dexamethasone concentration, Sclera", "setting": "[5]; 24 h", "result": "237.94 ± 139.25^a"}, {"measurement": "dexamethasone concentration, Vitreum", "setting": "[5]; 24 h", "result": "3.71 ± 4.31^a"}]}]}
